This note sets out measurements from patent publication US6057351A, “Compounds of the 3-aryl 2,4 dioxo oxazolidine family and use thereof in cosmetic and pharmaceuticals” (Societe L'Oreal S.A., priority 1996, dated 2000).

Molecules are shown by their SMILES.

One assay addresses T1, androgen receiver (Rattus norvegicus, UniProt P15207).
T1 sequence (P15207 1-902): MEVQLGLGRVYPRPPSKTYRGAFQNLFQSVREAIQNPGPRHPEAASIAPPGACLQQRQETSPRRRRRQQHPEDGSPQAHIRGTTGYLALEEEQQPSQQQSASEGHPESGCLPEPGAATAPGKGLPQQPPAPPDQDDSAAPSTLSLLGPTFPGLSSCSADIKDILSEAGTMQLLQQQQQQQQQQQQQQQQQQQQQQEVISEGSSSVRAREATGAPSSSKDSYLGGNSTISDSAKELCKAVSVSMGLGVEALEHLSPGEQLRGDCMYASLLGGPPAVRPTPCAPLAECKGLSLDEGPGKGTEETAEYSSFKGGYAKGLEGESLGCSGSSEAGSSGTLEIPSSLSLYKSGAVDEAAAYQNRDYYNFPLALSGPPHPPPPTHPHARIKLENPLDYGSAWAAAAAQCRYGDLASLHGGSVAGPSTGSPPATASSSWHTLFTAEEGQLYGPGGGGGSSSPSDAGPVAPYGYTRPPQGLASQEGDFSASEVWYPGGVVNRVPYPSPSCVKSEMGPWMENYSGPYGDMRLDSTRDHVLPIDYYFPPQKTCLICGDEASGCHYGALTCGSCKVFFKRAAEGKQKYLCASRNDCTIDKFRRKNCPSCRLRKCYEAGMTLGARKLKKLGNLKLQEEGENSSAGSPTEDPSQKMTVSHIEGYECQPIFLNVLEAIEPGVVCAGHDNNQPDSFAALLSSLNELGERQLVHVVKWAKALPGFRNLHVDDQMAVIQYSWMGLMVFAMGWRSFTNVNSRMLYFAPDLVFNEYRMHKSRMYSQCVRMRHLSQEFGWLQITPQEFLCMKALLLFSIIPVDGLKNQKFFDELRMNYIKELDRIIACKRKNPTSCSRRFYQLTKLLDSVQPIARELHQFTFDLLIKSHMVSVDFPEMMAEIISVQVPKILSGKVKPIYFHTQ
The assay can be described thus: Affinity for the androgen receiver (Schilling and Liao method), inhibition of testosterone fixation. The assay is classed as binding. On the procedure:
Measuring the affinity of the 4-(5-methyl-2,4-dioxo-5-trifluoromethyl)-oxazolidin-3-yp)-2-trifluoromethylbenzonitrile for the androgen receiver.
These measurements of receiving affinity for the androgen receiver are executed according to the Schilling and Liao method, described in "The Prostate", 1984, 5.p. 581-588.
The compound is tested at several concentrations. During the experiment, the reference molecule(mibolerone) is tested at the same time at 8 concentrations in order to validate the experiment.
The results are expressed in % of inhibition of the fixation of the testosterone on its receiver. The internal reference (mibolerone) inhibits up to 50% of this fixation at a concentration of 4.3 nM.

In the next assay the test system is thoracic aorta rings. Nature of the assay: "Potassic canal opener" type activity: in vitro relaxing power on thoracic aorta rings contracted by KCl 20 mM. The assay is classed as cell-based. On the procedure:
Measurement of the "potassic canal opener" type activity of the 4-(5-methyl-2,4-dioxo-5-trifluoromethyl)-oxazolidin-3-yl)-2-trifluoromethylbenzonitrile by measuring in vitro the relaxing power of the molecules of thoracic aorta rings.
The experiments are carried out according to the Newgreen et al (Br. J. Pharmacol., 100, 1990, p. 605-613), Bray et al (Arch. Pharmacol., 344, 1991, p. 351-359) and Wickerden et al (Br. J. Pharmacol., 103, 1991, 1148-1152) methods.
After placing the tissues in the isolated organ tanks, they (smooth aortic muscles) are subjected to an initial tension of 2 g.
After a period of equilibration, the tissues are exposed to a potassium chloride solution (KCl, at 20 mM) in order to obtain a sustained contractile response. After stabilization of this contractile response, the relaxing activity (of the potassic canal opener type) of the molecules to be tested is evaluated in response doses.
During the experiment, two reference molecules are used: cromakalim and Minoxidil.
Results expressed in % of inhibition of the contraction provoked by the KCl at 20 mM.

One may read the inhibition as the relative decrease from the control value, in per cent. As to `CC1(C(F)(F)F)OC(=O)N(c2ccc(C#N)c(C(F)(F)F)c2)C1=O` (centres unmarked) [4-(5-methyl-2,4-dioxo-5-trifluoromethyl)-oxazolidin-3-yl)-2-trifluoromethylbenzonitrile], at androgen receiver (compound at 0.1 μM, read-out: % of inhibition of the fixation of the testosterone on its receiver), the inhibition at 0.1 µM is 2%. On androgen receiver (compound at 1 μM, read-out: % of inhibition of the fixation of the testosterone on its receiver), the inhibition at 1 µM was determined as 17%. On androgen receiver (compound at 10 μM, read-out: % of inhibition of the fixation of the testosterone on its receiver), the inhibition at 10 µM was 56%. Also, the “% of inhibition of the contraction provoked by the KCl at 20 mM” value in the assay with thoracic aorta rings (compound at 0.1 μM) is listed as 12%; with thoracic aorta rings (compound at 1 μM), 69%; with thoracic aorta rings (compound at 10 μM), 95%. In addition, in the assay with thoracic aorta rings (conclusion drawn from the results of Examples 2 and 3), the “activity profile (potassic canal opener / anti-androgen)” value is listed as “mixed activity, with a preferred activity for the K* Agonist facet”.
For the compound `CC1(C)Oc2ccc(C#N)cc2C(N2CCCC2=O)C1O` (centres unmarked) [Cromakalim, cromakalim], the “% of inhibition of the contraction provoked by the KCl at 20 mM” value in the assay with thoracic aorta rings (compound at 0.1 μM) is 46%; in the assay on thoracic aorta rings (compound at 1 μM), 86%; with thoracic aorta rings (compound at 10 μM) it was 100%.
For `Nc1cc(N2CCCCC2)nc(N)[n+]1[O-]` [Minoxidil, 3-oxide pyrimidine 6-piperidino 2,4-diamino], in that order: 25%, 65% and 95%.
As usually defined, the IC50 is the point on the concentration scale where inhibition reaches its midpoint. The compound `C[C@@H]1CC2=CC(=O)CC[C@@H]2[C@H]2CC[C@@]3(C)[C@@H](CC[C@]3(C)O)[C@@H]21` [mibolerone] registered an IC50 at androgen receiver of 4.3 nM.
